Assays:
[1] = tested on: Nanogam (human immunoglobulins); test: Reduction in aggregation of Nanogam at its isoelectric point (light scattering at 12.8°, Malvern NanoZS); assay type: physicochemical; details: 40 mg/ml human immunoglobulins, pH 8.5 (pI), relative to Nanogam at pH 4.3
Experimental: The Nanogam formulation is a formulation of human immunoglobulins at 50 mg/ml and at pH 4.3 containing various IgG subclasses (IgG1: 54-70%, IgG2: 29-45%, IgG3: 1-4%, IgG4: 0-0.5%, IgA: at most 6 μg/ml). […] A test with various compounds is therefore carried out at the isoelectric point in order to identify the compounds which make it possible to reduce this aggregation phenomenon.
A commercial solution of Nanogam at 50 mg/ml is used. […] Mixing between the solution of Nanogam and one of the solutions of compound is carried out in order to obtain a solution containing 40 mg/ml of human immunoglobulins and the desired concentration of compound. The pH of the various solutions is adjusted to pH 8.5 by adding hydrochloric acid or sodium hydroxide depending on the pH achieved following the mixing between the compound of interest and the solution of human immunoglobulins.
The mixtures are then analyzed by light scattering on a Malvern NanoZS instrument.
The scattered intensities are measured at 12.8°.

human insulin = target: T1, human insulin (Homo sapiens, UniProt P01308); test: Solubilization of human insulin at its isoelectric point (visual appearance, soluble fraction by RP-HPLC); assay type: physicochemical; parameters: key to Visual appearance: Cloudy: If the solution is cloudy, the compound at the concentration tested does not allow total solubilization of human insulin at its isoelectric point; Clear: If the solution is clear, the compound allows total solubilization of human insulin at the concentration tested; details: 100 IU/ml human insulin, pH 5.3 (pI)
T1 construct: A solution of human insulin at 500 IU/ml is prepared
Experimental: Human insulin has an isoelectric point (pI) of 5.3. […] A test of solubility at the pI of human insulin with various compounds is carried out. […] Solutions of compounds at various concentrations in water are prepared as described in examples B1 to B4. […] The pH of the various solutions is adjusted to pH 5.3 by adding hydrochloric acid or sodium hydroxide depending on the pH achieved following the mixing between the compound and the solution of human insulin. The appearance of the solution is documented. […] If the solution is clear, the compound allows total solubilization of human insulin at the concentration tested. In addition, the mixtures are centrifuged at 4000 rpm for 10 minutes in a Hereaus Biofuge Pico centrifuge (Rotor #3328) and then filtered through 0.22 μm in order to remove the precipitate. The resulting soluble fractions are then assayed by RP-HPLC (column: Sunfire C18, Waters ref:186003417; mobile phase: sodium phosphate/acetonitrile gradient; detection: UV at 276 nm) with an external insulin range in order to quantify the percentage of soluble insulin at the pI.

[2] = at pH 5.3 (pI); cited from earlier work
[3] = compound 180 mmol/l, molar ratio compound/Nanogam 675
[4] = compound 75 mmol/l, molar ratio compound/insulin 125
[5] = compound 750 mmol/l, molar ratio compound/insulin 1250
[6] = compound 300 mmol/l, molar ratio compound/insulin 500
[7] = compound 120 mmol/l, molar ratio compound/insulin 200
[8] = compound 150 mmol/l, molar ratio compound/insulin 250

T1 sequence (P01308 25-54 limits assumed): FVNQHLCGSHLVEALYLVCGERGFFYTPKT
T1 sequence (P01308 90-110 limits assumed): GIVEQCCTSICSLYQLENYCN

CC(Oc1ccccc1)C(=O)O (stereo not drawn) [2-Phenoxypropionic acid]
Iscat 12.8° standardized [1, 3]: 6.38

CC(=O)O [Acetic acid, reference compound]
Iscat 12.8° standardized [1, 3]: 200.18

N[C@@H](Cc1c[nH]cn1)C(=O)O [Histidine, L-histidine, reference compound]
Soluble insulin recovery (%) (human insulin; [4]): 48%
Visual appearance (human insulin; [4]): Cloudy
Iscat 12.8° standardized ([1]; compound 40 mmol/l, molar ratio compound/Nanogam 150): 80.82

O=C(O)C(O)c1ccccc1 (stereo not drawn) [Mandelic acid]
Soluble insulin recovery (%) (human insulin; [5]): 100%
Visual appearance (human insulin; [5]): Clear
Iscat 12.8° standardized ([1]; compound 27.5 mmol/l, molar ratio compound/Nanogam 675): 22.15

O=C(CO)N[C@@H](Cc1ccccc1)C(=O)O [Molecule A1, N-(2-hydroxyacetyl)-L-phenylalanine]
Soluble insulin recovery (%) (human insulin; [6]): 100%
Visual appearance (human insulin; [6]): Clear
Iscat 12.8° standardized ([1]; compound 85 mmol/l, molar ratio compound/Nanogam 320): 23.5

O=C(CO)N[C@@H](Cc1c[nH]c2ccccc12)C(=O)O [Molecule A2, N-(2-hydroxyacetyl)-L-tryptophan]
Soluble insulin recovery (%) (human insulin; [7]): 100%
Visual appearance (human insulin; [7]): Clear

O=C(O)Cc1ccccc1 [Phenylacetic acid]
Iscat 12.8° standardized [1, 3]: 20.082

OC[C@H]1O[C@@](CO)(O[C@H]2O[C@H](CO)[C@@H](O)[C@H](O)[C@H]2O)[C@@H](O)[C@@H]1O [Sucrose, reference compound]
Soluble insulin recovery (%) (human insulin; [8]): 67%
Visual appearance (human insulin; [8]): Cloudy
Soluble insulin recovery (%) (human insulin; [6]): 35%
Visual appearance (human insulin; [6]): Cloudy

Human insulin control: Human insulin at 100 IU/ml, pH 5.3, without solubilizing compound
Concentration at which human insulin precipitates [2]: greater than or equal to 10 IU/ml
Soluble insulin recovery (%) (human insulin; control without compound): 11%
Visual appearance (human insulin; control without compound): Cloudy
